The target of one test is T1, PKC epsilon (Homo sapiens, UniProt Q02156).
T1 construct: purchased Invitrogen P2282
T1 sequence (Q02156 1-737): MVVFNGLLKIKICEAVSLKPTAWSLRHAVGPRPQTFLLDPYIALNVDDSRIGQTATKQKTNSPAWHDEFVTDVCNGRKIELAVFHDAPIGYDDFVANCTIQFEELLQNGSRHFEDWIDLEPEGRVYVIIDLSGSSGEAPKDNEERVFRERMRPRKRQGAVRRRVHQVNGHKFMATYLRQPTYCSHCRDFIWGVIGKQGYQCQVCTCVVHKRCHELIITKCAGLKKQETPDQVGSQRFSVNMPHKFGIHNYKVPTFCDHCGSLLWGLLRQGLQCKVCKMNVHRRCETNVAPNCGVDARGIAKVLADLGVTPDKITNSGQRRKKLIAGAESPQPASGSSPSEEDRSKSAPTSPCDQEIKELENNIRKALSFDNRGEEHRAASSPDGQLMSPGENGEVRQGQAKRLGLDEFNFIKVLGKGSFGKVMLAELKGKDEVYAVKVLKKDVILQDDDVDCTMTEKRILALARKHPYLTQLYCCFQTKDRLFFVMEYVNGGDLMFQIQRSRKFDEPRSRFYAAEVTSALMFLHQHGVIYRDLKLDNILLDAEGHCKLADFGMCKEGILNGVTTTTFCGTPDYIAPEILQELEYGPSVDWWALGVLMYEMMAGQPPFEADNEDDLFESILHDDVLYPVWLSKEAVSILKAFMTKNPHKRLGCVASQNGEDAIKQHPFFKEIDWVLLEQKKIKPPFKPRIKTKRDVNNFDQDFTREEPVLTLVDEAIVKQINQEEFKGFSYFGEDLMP
Nature of the test: Biochemical assay for PKC epsilon (fluorescence polarization, Protein Kinase C Assay Kit, Red). Particulars: read-out: IC50 μM PKCε. Put shortly: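 Read-out was fluorescence-polarization competition between phosphorylated substrate and a rhodamine PKC tracer for an anti-phosphoserine antibody, added with EDTA stop after an 80 min room-temperature kinase reaction with ATP and protein substrate (Mg2+/Ca2+ buffer). Enzyme (10 ng/ml final) was preincubated with compound for 30 min.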

Another test has as its target T2, human ROCKα/ROCKII mix (Homo sapiens, UniProt O75116).
T2 construct: purchased Upstate Biotechnology 14-451
Nature of the test: Biochemical assay for ROCK (fluorescence polarization, ROCK IMAP Kit).

Where [1] appears, read: Table 2, compounds of Formula XIII.
Setting [2] is: compounds of Formula XIV, Table 3.

Like-named read-outs stand apart in the source and are kept apart here.

T2 sequence (O75116 11-552 limits assumed): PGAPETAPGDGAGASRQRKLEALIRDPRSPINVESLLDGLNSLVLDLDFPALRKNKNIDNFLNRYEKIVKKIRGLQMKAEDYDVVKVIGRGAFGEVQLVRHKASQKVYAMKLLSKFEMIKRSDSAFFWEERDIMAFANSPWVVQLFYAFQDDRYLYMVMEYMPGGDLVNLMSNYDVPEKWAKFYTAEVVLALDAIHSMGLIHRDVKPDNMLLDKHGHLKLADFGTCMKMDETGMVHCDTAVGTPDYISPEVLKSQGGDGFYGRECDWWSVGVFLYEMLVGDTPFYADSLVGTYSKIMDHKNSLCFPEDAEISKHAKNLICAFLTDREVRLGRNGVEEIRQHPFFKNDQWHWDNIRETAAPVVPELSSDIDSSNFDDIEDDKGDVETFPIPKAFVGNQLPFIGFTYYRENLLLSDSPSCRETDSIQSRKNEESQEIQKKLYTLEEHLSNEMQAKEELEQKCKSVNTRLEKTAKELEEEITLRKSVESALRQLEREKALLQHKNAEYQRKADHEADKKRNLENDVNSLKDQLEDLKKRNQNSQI

By IC50 is commonly meant the concentration at which inhibition is half-maximal. Regarding `COc1ccc(CC(=O)NCC(N)c2ccc(C(=O)Nc3ccncc3)cc2)cc1` (stereo not shown) [Compound 140, 4-{1-amino-2-[2-(4-methoxy-phenyl)-acetylamino]-ethyl}-N-pyridin-4-yl-benzamide], the 50% inhibitory concentration (IC50) on PKC epsilon (setting [1]) fell in the range of 5 to 50 µM; against human ROCKα/ROCKII mix (setting [1]), 0.05 to 0.5 µM.
As to `NC(CNC(=O)CC1CC1)c1ccc(C(=O)Nc2ccncc2)cc1` (stereo not shown) [Compound 46, 4-[1-Amino-2-(2-cycopropyl-acetylamino)-ethyl]-N-pyridin-4-yl-benzamide], the IC50 on PKC epsilon (setting [1]) and on human ROCKα/ROCKII mix (setting [1]) was 0.5 to 5 µM each time.
Take `NC(c1ccc(C(=O)Nc2ccncc2)cc1)C1CCCN1C(=O)C1(c2ccc(Cl)cc2)CC1` (stereo not shown) [Compound 564, 4-(Amino-{1-[1-(4-chloro-phenyl)-cyclopropanecarbonyl]-pyrrolidin-2-yl}-methyl)-N-pyridin-4-yl-benzamide]: the half-maximal inhibitory concentration (IC50) on PKC epsilon and at human ROCKα/ROCKII mix was 0.5 to 5 µM each time.
For `CN(CC(N)c1ccc(C(=O)Nc2ccncc2)cc1)C(=O)C1(c2ccc(Cl)c(Cl)c2)CCC1` (stereo not shown) [Compound 494, 4-(1-Amino-2-{[1-(3,4-dichloro-phenyl)-cyclobutanecarbonyl]-methyl-amino}-ethyl)-N-pyridin-4-yl-benzamide], the results for the IC50 on PKC epsilon and on human ROCKα/ROCKII mix were 5 to 50 µM and 0.5 to 5 µM, respectively.
`NC(CC(=O)NC1c2ccccc2-c2ccccc21)c1ccc(C(=O)Nc2ccncc2)cc1` (stereo not shown) [Compound 227, 4-[1-Amino-2-(9H-fluoren-9-ylcarbamoyl)-ethyl]-N-pyridin-4-yl-benzamide]: the half-maximal inhibitory concentration (IC50) on PKC epsilon (setting [2]) was in the range of 0.5 to 5 µM; on human ROCKα/ROCKII mix (setting [2]) it was 0.05 to 0.5 µM.
For the compound `NC(CC(=O)NCCc1ccc(F)cc1)c1ccc(C(=O)Nc2ccncc2)cc1` (stereo not shown) [Compound 307, 4-{1-amino-2-[2-(4-fluoro-phenyl)-ethylcarbamoyl]-ethyl}-N-pyridin-4-yl-benzamide], the IC50 at PKC epsilon (setting [2]) and at human ROCKα/ROCKII mix (setting [2]) was 0.05 to 0.5 µM each time.
Regarding `Cc1cccc(Cl)c1CNC(=O)CC(N)c1ccc(C(=O)Nc2ccncc2)cc1` (stereo not shown) [Compound 247, 4-[1-Amino-2-(2-chloro-6-methyl-benzylcarbamoyl)-ethyl]-N-pyridin-4-yl-benzamide], the half-inhibitory concentration (IC50) at PKC epsilon (setting [2]) was 0.5 to 5 µM; on human ROCKα/ROCKII mix (setting [2]) it was 0.05 to 0.5 µM.
`NC(CNC(=O)C1(c2ccsc2)CC1)c1ccc(C(=O)Nc2ccncc2)cc1` (stereo not shown) [Compound 347, 4-{1-Amino-2-[(1-thiophen-3-yl-cyclopropanecarbonyl)-amino]-ethyl}-N-pyridin-4-yl-benzamide]: the IC50 on PKC epsilon (setting [1]) and on human ROCKα/ROCKII mix (setting [1]) was 0.05 to 0.5 µM throughout.
Take `COc1ccc(C2(C(=O)N3CCCC3C(N)c3ccc(C(=O)Nc4ccncc4)cc3)CCCC2)cc1` (stereo not shown) [Compound 530, 4-(Amino-{1-[1-(4-methoxy-phenyl)-cyclopentanecarbonyl]-pyrrolidin-2-yl}-methyl)-N-pyridin-4-yl-benzamide]: the IC50 on PKC epsilon and against human ROCKα/ROCKII mix was 0.5 to 5 µM each time.
Take `CN(CC(N)c1ccc(C(=O)Nc2ccncc2)cc1)C(=O)Cc1cccc(Cl)c1F` (stereo not shown) [Compound 501, 4-(1-Amino-2-{[2-(3-chloro-2-fluoro-phenyl)-acetyl]-methyl-amino}-ethyl)-N-pyridin-4-yl-benzamide]: the results for the IC50 on PKC epsilon and on human ROCKα/ROCKII mix were 5 to 50 µM and 0.5 to 5 µM, respectively.
As to “4-(1-Amino-2- phenethylcarbamoyl-ethyl)- N-pyridin-4-yl-benzamide [Compound 281]”, the results for the IC50 at PKC epsilon (setting [2]) and on human ROCKα/ROCKII mix (setting [2]) were 0.5 to 5 µM and 0.05 to 0.5 µM, respectively.
Regarding `NC(CNC(=O)CCc1ccccc1)c1ccc(C(=O)Nc2ccncc2)cc1` (stereo not shown) [Compound 162], the IC50 on PKC epsilon (setting [1]) fell in the range of 0.5 to 5 µM; against human ROCKα/ROCKII mix (setting [1]), 0.05 to 0.5 µM.
`Cc1cccc(CN2CCC(NC(=O)CC(N)c3ccc(C(=O)Nc4ccncc4)cc3)CC2)c1` (stereo not shown) [Compound 201, 4-{1-amino-2-[1-(3-methyl-benzyl)-piperidin-4-ylcarbamoyl]-ethyl}-N-pyridin-4-yl-benzamide]: the 50% inhibitory concentration (IC50) on PKC epsilon (setting [2]) was in the range of 0.5 to 5 µM; at human ROCKα/ROCKII mix (setting [2]), 0.05 to 0.5 µM.
The corresponding values for `NC(CC(=O)NC1CCCc2ccccc21)c1ccc(C(=O)Nc2ccncc2)cc1` (single isomer, unassigned) [Compound 222] are 5 to 50 µM and 0.05 to 0.5 µM.

Source of the values: patent US20100168102A9, “Amide Derivatives as Kinase Inhibitors” (Devgen NV, priority 2005, published 2010).
